According to patent US8771764B2, “Composition and method for improving vascular health” (Malaysian Palm Oil Board, priority 2009, dated 2014):

Key:
Sprague-Dawley rats = test: Blood pressure study in L-NAME (nitric oxide deficient) model of hypertension, dietary OPP; format: in vivo, rat
From the text: In order to determine the effect of OPP in blood pressure reduction, a method utilizing a nitric oxide (NO) deficient model of hypertension was used. This animal model involves the inhibition of endogenous NO production with L-NAME (N^G-nitro-L-arginine methyl ester) that leads to elevation in BP.
12 weeks old Sprague-Dawley rats were fed a standard laboratory rat diet, formulated to contain low n-3 polyunsaturated fatty acids (Glen Forrest Stock feeders, Glen Forrest, W.A., Australia). The OPP was provided as a drink at a rate of 30 ml/rat/day. OPP were provided at two different strengths—as liquid (1500 GAE) and in a concentrated liquid form at 3000 GAE (prepared using the freeze-dried preparation at 30,000 GAE). Rats were pre-treated for four weeks prior to challenge with L-NAME. […]
BP was monitored fortnightly by standard photoelectric tail-cuff procedure (IITC, Life Sciences, Woodlands Hills, Calif., USA) as described in detail previously. […] The pulse was detected as the cuff pressure was reduced and the pressure at which the first pulse detected was taken as the systolic blood pressure and computed automatically (IITC software package). The ambient temperature was carefully controlled (30° C.) and the average of 3-4 readings was taken as the final reading.

human LDL = test: Copper-mediated LDL oxidation, conjugated diene formation; format: biochemical; conditions: for Lag time (mins), conjugated diene formation: control LDL 67 ± 12, means ± SD
Method: Blood from six healthy normocholesterolemic adult volunteers was collected into vacutainer tubes containing EDTA and centrifuged (1000×g for 15 min) to isolate plasma. LDL was isolated by density gradient centrifugation in a Beckman Ultracentrifuge using a 50.2 Ti rotor, based on the method of Sundram et al. (2). The LDL layer following sequential isolation at density 1.063 kg/L was removed and dialyzed against 4 L of PBS, pH 7.4 and purged with nitrogen for 12-18 h. After dialysis, the cholesterol concentration in the pooled LDL sample was determined using an automated Cholesterol assay. The LDL fraction was used immediately or immediately stored under nitrogen at 4° C. and analyzed for LDL oxidation within 48 h.
To evaluate the ability of OPP to inhibit copper (Cu) mediated LDL oxidation, conjugated dienes (CD) were continually monitored at 5-min intervals at 37° C. by UV absorption at 234 nm. LDL oxidation was initiated by addition of copper sulfate at a final concentration of 6 μmol/L to 90 μg of LDL cholesterol in a final volume of 1 mL. The purified test compounds (catechin obtained from Sigma Chemical) and OPP extracts were added immediately before the addition of the oxidant. The extracts were added at a final concentration range of 0.25-1.0 μmol/L GAB and the purified compounds at a final concentration of 0.25 or 0.5 μmol/L. All LDL oxidations were performed in triplicate. The lag time in the presence or absence of the test compounds was determined as the intercept of the slopes for the lag and propagation phases. This was compared with the control oxidized LDL to determine the percentage of LDL oxidation inhibition.

COC(=O)[C@@H](N)CCCNC(=N)N[N+](=O)[O-] [L-NAME, N^G-nitro-L-arginine methyl ester]
initial rise in BP on introduction of L-NAME (Sprague-Dawley rats; L-NAME 10 mg/Kg, OPP pre-treatment 4 weeks): 18 mmHg | final BP values (Sprague-Dawley rats; conclusion of experiment, L-NAME 10 then 15 mg/Kg, OPP drink 30 ml/rat/day, tail-cuff systolic BP, n=12): 176±2.5 mmHg

catechin
Lag time (mins), conjugated diene formation (human LDL; 0.25 μmol/L): 87 ± 13 min | LDL lag phase lengthened / increase in lag time relative to control LDL (human LDL; 0.5 μmol/L): 55% | Lag time (mins), conjugated diene formation (human LDL; 0.5 μmol/L): 104 ± 10 min
